The target in assay [1] is T1, full-length beta-Catenin (Uniprot ID P35222) (Homo sapiens, UniProt P35222).
T1 construct: 10 nM full-length beta-Catenin (Uniprot ID P35222)
T1 sequence (P35222 1-781): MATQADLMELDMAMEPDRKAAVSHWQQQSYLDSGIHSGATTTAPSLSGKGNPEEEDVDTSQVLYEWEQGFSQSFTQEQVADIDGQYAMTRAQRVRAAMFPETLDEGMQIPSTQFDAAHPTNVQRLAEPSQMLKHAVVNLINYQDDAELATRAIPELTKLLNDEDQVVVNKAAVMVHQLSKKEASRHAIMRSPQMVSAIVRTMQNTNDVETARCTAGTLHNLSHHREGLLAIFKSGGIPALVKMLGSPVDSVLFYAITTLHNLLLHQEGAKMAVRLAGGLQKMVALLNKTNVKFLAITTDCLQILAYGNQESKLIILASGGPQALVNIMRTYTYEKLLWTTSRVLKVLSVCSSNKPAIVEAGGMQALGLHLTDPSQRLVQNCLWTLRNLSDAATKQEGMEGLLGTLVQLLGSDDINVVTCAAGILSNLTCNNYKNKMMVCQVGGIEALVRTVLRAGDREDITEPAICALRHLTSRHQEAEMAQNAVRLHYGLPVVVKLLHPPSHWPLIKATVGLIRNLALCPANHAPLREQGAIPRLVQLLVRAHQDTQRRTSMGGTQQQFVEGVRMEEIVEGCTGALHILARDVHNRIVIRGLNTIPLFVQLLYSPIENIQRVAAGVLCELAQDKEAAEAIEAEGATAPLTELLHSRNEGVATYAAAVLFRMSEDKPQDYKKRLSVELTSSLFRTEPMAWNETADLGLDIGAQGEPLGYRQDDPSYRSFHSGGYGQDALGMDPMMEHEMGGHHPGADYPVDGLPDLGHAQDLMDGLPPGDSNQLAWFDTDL
The assay can be described thus: Fluorescence polarization IC50 (beta-catenin / 5FAM-TCF4 10-53 competition). Format: binding. To be noted: fluorescence polarization; read-out: beta-Catenin FP IC50. On the technique in general: Fluorescence polarisation rises when a labelled molecule tumbles more slowly, as on binding a larger partner.

Assay [2] deals with T2, beta-catenin/TCF4 engagement (Homo sapiens, UniProt P35222).
T2 construct: expressed in transfected cells; host or cells: HEK293
T2 sequence (P35222 1-781): T1 sequence (P35222 1-781)
The assay can be described thus: Nano-BRET target engagement assay (B-cat-Halo & TCF4-Luc in HEK293 cells). The conditions noted are these: absolute IC50; read-out: NanoBRET Abs IC50. The assay is classed as cell-based. In general terms: BRET reads energy transfer from a luciferase to a nearby fluorophore.

For orientation: IC50 means the midpoint of a concentration-inhibition curve. Take `CC(=O)N1CCC[C@]12CC=CCCCC1(CCCC=CCCCOC(=O)N3CC[C@@](C(=O)N[C@@H](Cc4ccsc4)C(=O)N[C@H](C(=O)N[C@@H](CCC(N)=O)C(N)=O)[C@@H](C)c4ccc5ccccc5c4)(C3)NC(=O)[C@H](CC(C)C)NC(=O)[C@H](Cc3ccccc3)NC(=O)[C@H](C)NC(=O)[C@H](C)NC(=O)[C@H](Cc3cccc(C(=O)O)c3)NC(=O)[C@H](CC(=O)O)NC1=O)NC(=O)[C@H](CC(C)(C)C)NC(=O)[C@H](CC(=O)O)NC2=O` (stereo partly drawn) [I-2313, Ac-PL3-Asp-Npg-B5-Asp-3COOHF-Ala-Ala-Phe-Leu-PyrS2-3Thi-SbMe2NapA-Gln-NH2]: the IC50 in assay [1] came out at 22 nM; in assay [2], 24.3 µM.

In the case of `CC(=O)N1CCC[C@]12CC=CCCCC1(CCCC=CCCCOC(=O)N3CC[C@@](C(=O)N[C@@H](Cc4ccsc4)C(=O)N[C@H](C(=O)N[C@@H](C)C(N)=O)[C@@H](C)c4ccc5ccccc5c4)(C3)NC(=O)[C@H](C(C)C)NC(=O)[C@H](Cc3ccccc3)NC(=O)[C@H](C)NC(=O)[C@H](CCC(N)=O)NC(=O)[C@H](Cc3cccc(C(=O)O)c3)NC(=O)[C@H](CC(=O)O)NC1=O)NC(=O)[C@H](CC(C)(C)C)NC(=O)[C@H](CC(=O)O)NC2=O` (stereo partly drawn) [I-2314, Ac-PL3-Asp-Npg-B5-Asp-3COOHF-Gln-Ala-Phe-Val-PyrS2-3Thi-SbMe2NapA-Ala-NH2], the concentration for half-maximal inhibition (IC50) in assay [1] was 48 nM; in assay [2], more than 20 µM.

Turning to `CC(=O)N1CCC[C@]12CC=CCCCC1(CCCC=CCCCOC(=O)N3CC[C@@](C(=O)N[C@@H](Cc4ccccc4C(F)(F)F)C(=O)N[C@@H](Cc4csc5ccccc45)C(=O)N[C@@H](C)C(N)=O)(C3)NC(=O)[C@H](CC(C)C)NC(=O)[C@H](Cc3ccccc3)NC(=O)[C@H](C)NC(=O)[C@H](CCC(=O)N3CCC(N4CCCCC4)CC3)NC(=O)[C@H](Cc3cccc(C(=O)O)c3)NC(=O)[C@H](CC(=O)O)NC1=O)NC(=O)[C@H](CC(C)(C)C)NC(=O)[C@H](CC(=O)O)NC2=O` (stereo partly drawn) [I-2317, Ac-PL3-Asp-Npg-B5-Asp-3COOHF-[4Pippip]GlnR-Ala-Phe-Leu-PyrS2-2F3MeF-BztA-Ala-NH2], the half-inhibitory concentration (IC50) worked out at 12 nM in assay [1] and 18.8 µM in assay [2].

Take `CCS(=O)(=O)N1CCN(C(=O)CC[C@@H]2NC(=O)[C@H](Cc3cccc(C(=O)O)c3)NC(=O)[C@H](CC(=O)O)NC(=O)C3(CCCC=CCCCOC(=O)N4CC[C@@](C(=O)N[C@@H](Cc5ccccc5C(F)(F)F)C(=O)N[C@@H](Cc5csc6ccccc56)C(=O)N[C@@H](C)C(N)=O)(C4)NC(=O)[C@H](CC(C)C)NC(=O)[C@H](Cc4ccccc4)NC(=O)[C@H](C)NC2=O)CCCC=CC[C@]2(CCCN2C(C)=O)C(=O)N[C@@H](CC(=O)O)C(=O)N[C@@H](CC(C)(C)C)C(=O)N3)CC1` (stereo partly drawn) [I-2321, Ac-PL3-Asp-Npg-B5-Asp-3COOHF-[EtSO2Ppz]GlnR-Ala-Phe-Leu-PyrS2-2F3MeF-BztA-Ala-NH2]: the IC50 is 5 nM in assay [1] and 1.7 µM in assay [2].

`CC(=O)N1CCC[C@]12CC=CCCCC1(CCCC=CCCCOC(=O)N3CC[C@@](C(=O)N[C@@H](Cc4ccccc4C(F)(F)F)C(=O)N[C@@H](Cc4csc5ccccc45)C(=O)N[C@@H](C)C(N)=O)(C3)NC(=O)[C@H](CC(C)C)NC(=O)[C@H](Cc3ccccc3)NC(=O)[C@H](C)NC(=O)[C@H](CCC(=O)N3CCN(CCCN(C)C)CC3)NC(=O)[C@H](Cc3cccc(C(=O)O)c3)NC(=O)[C@H](CC(=O)O)NC1=O)NC(=O)[C@H](CC(C)(C)C)NC(=O)[C@H](CC(=O)O)NC2=O` (stereo partly drawn) [I-2323, Ac-PL3-Asp-Npg-B5-Asp-3COOHF-[Me2NPrPip]GlnR-Ala-Phe-Leu-PyrS2-2F3MeF-BztA-Ala-NH2]: the IC50 in assay [1] is 6 nM; in assay [2], 17.7 µM.

For `CC(=O)N1CC2CC1C(=O)N[C@@H](CC(=O)O)C(=O)N[C@@H](CC(C)(C)C)C(=O)NC1(CCCCCCCCOC(=O)N3CC[C@@](C(=O)N[C@@H](Cc4ccsc4)C(=O)N[C@@H](Cc4csc5ccccc45)C(=O)N[C@@H](CCC(N)=O)C(N)=O)(C3)NC(=O)[C@H](CC(C)C)NC(=O)[C@H](Cc3ccccc3)NC(=O)[C@H](C)NC(=O)[C@H](C)NC(=O)[C@H](CN(CC(=O)O)CC(F)(F)F)NC(=O)[C@H](CC(=O)O)NC1=O)CCCCCCOc1cccc(c1)C(=O)O2` (stereo partly drawn) [I-2328, Ac-HypBzEs3OAllyl-Asp-Npg-B5-Asp-TfeGA-Ala-Ala-Phe-Leu-PyrS2-3Thi-BztA-Gln-NH2], the IC50 in assay [1] was 170 nM; in assay [2] it was more than 20 µM.

Regarding `CC(=O)N1CCC[C@]12CC=CCCCC1(CCCC=CCCCOC(=O)N3CC[C@@](C(=O)N[C@@H](Cc4ccsc4)C(=O)N[C@@H](Cc4csc5ccccc45)C(=O)N[C@@H](CCC(N)=O)C(N)=O)(C3)NC(=O)[C@H]([C@@H](C)O)NC(=O)[C@H](Cc3ccccc3)NC(=O)[C@H](C)NC(=O)[C@H](C)NC(=O)[C@H](Cc3cccc(C(=O)O)c3)NC(=O)[C@H](CC(N)=O)NC1=O)NC(=O)[C@H](CC(C)(C)C)NC(=O)[C@H](CC(=O)O)NC2=O` (stereo partly drawn) [I-2336, Ac-PL3-Asp-Npg-B5-Asn-3COOHF-Ala-Ala-Phe-Thr-PyrS2-3Thi-BztA-Gln-NH2], the half-inhibitory concentration (IC50) was 19 nM in assay [1] and 14.4 µM in assay [2].

`CC(=O)N1CCC[C@]12CC=CCCCC1(CCCC=CCCCOC(=O)N3CC[C@@](C(=O)N[C@@H](Cc4ccsc4)C(=O)N[C@@H](Cc4csc5ccccc45)C(=O)N[C@@H](CCC(N)=O)C(N)=O)(C3)NC(=O)[C@H](CC(N)=O)NC(=O)[C@H](Cc3ccccc3)NC(=O)[C@H](C)NC(=O)C(C)(C)NC(=O)[C@H]([C@@H](C)O)NC(=O)[C@H](CC(N)=O)NC1=O)NC(=O)[C@H](CC(C)(C)C)NC(=O)[C@H](CC(=O)O)NC2=O` (stereo partly drawn) [I-2338, Ac-PL3-Asp-Npg-B5-Asn-Thr-Aib-Ala-Phe-Asn-PyrS2-3Thi-BztA-Gln-NH2]: the figures for the IC50 in assay [1] and in assay [2] were 63 nM and more than 20 µM, respectively.

Turning to `CC(=O)N1CCC[C@]12CC=CCCCC1(CCCC=CCCCOC(=O)N3CC[C@@](C(=O)N[C@@H](Cc4ccccc4)C(=O)N[C@@H](Cc4csc5ccccc45)C(=O)N[C@@H](CCC(N)=O)C(N)=O)(C3)NC(=O)[C@H](CC(C)C)NC(=O)[C@H](Cc3ccccc3)NC(=O)[C@H](C)NC(=O)[C@H](CCCCNC(C)C)NC(=O)[C@H](Cc3cccc(C(=O)O)c3)NC(=O)[C@H](CC(=O)O)NC1=O)NC(=O)[C@H](CC1CCCCC1)NC(=O)[C@H](CC(N)=O)NC2=O` (stereo partly drawn) [I-2340, Ac-PL3-Asn-Cha-B5-Asp-3COOHF-iPrLys-Ala-Phe-Leu-PyrS2-Phe-BztA-Gln-NH2], the IC50 is 5 nM in assay [1] and more than 20 µM in assay [2].

Turning to `CC(=O)N1CCC[C@]12CC=CCCCC1(CCCC=CCCCOC(=O)N3CC[C@@](C(=O)N[C@@H](Cc4ccccc4)C(=O)N[C@@H](Cc4csc5ccccc45)C(=O)N[C@@H](CCC(N)=O)C(N)=O)(C3)NC(=O)[C@H](CC(C)C)NC(=O)[C@H](Cc3ccccc3)NC(=O)[C@H](C)NC(=O)[C@H](CCCCNC(C)C)NC(=O)[C@H](CN(CC(=O)O)CC(F)(F)F)NC(=O)[C@H](CC(=O)O)NC1=O)NC(=O)[C@H](CC1CCCCC1)NC(=O)[C@H](CC(N)=O)NC2=O` (stereo partly drawn) [I-2341, Ac-PL3-Asn-Cha-B5-Asp-TfeGA-iPrLys-Ala-Phe-Leu-PyrS2-Phe-BztA-Gln-NH2], the IC50 was 42 nM in assay [1] and more than 20 µM in assay [2].

On to `CC(=O)N1CCC[C@]12CC=CCCCC1(CCCC=CCCCOC(=O)N3CC[C@@](C(=O)N[C@@H](Cc4ccccc4)C(=O)N[C@@H](Cc4csc5ccccc45)C(=O)N[C@@H](CCCCN)C(N)=O)(C3)NC(=O)[C@H](CC(C)C)NC(=O)[C@H](Cc3ccccc3)NC(=O)[C@H](C)NC(=O)[C@H](CCCCNC(C)C)NC(=O)[C@H](CCC(N)=O)NC(=O)[C@H](CC(=O)O)NC1=O)NC(=O)[C@H](CC1CCCCC1)NC(=O)[C@H](CC(N)=O)NC2=O` (stereo partly drawn) [I-2350, Ac-PL3-Asn-Cha-B5-Asp-Gln-iPrLys-Ala-Phe-Leu-PyrS2-Phe-BztA-Lys-NH2], for which the IC50 was 63 nM in assay [1] and more than 20 µM in assay [2].

Turning to `CC(=O)N1CCC[C@]12CC=CCCCC1(CCCC=CCCCOC(=O)N3CC[C@@](C(=O)N[C@@H](Cc4ccccc4)C(=O)N[C@@H](Cc4csc5ccccc45)C(=O)N[C@@H](CCC(N)=O)C(N)=O)(C3)NC(=O)[C@H](CC(C)C)NC(=O)[C@H](Cc3ccccc3)NC(=O)[C@H](C)NC(=O)[C@H](CCO)NC(=O)[C@H](CCC(N)=O)NC(=O)[C@H](CC(=O)O)NC1=O)NC(=O)[C@H](CC1CCCCC1)NC(=O)[C@H](CC(N)=O)NC2=O` (stereo partly drawn) [I-2354, Ac-PL3-Asn-Cha-B5-Asp-Gln-Hse-Ala-Phe-Leu-PyrS2-Phe-BztA-Gln-NH2], the IC50 in assay [1] was 100 nM; in assay [2] it was more than 20 µM.

Consider `CCOC(=O)C[C@@H]1NC(=O)C2(CCCC=CCCCOC(=O)N3CC[C@@](C(=O)N[C@@H](Cc4ccsc4)C(=O)N[C@@H](Cc4csc5ccccc45)C(=O)N[C@@H](CCC(N)=O)C(N)=O)(C3)NC(=O)[C@H](CC(C)C)NC(=O)[C@H](Cc3ccccc3)NC(=O)[C@H](C)NC(=O)[C@H](C)NC(=O)[C@H](CC(=O)O)NC1=O)CCCC=CC[C@]1(CCCN1C(C)=O)C(=O)N[C@@H](CC(=O)O)C(=O)N[C@@H](CC(C)(C)C)C(=O)N2` (stereo partly drawn) [I-2357, Ac-PL3-Asp-Npg-B5-[Et]AspE-Asp-Ala-Ala-Phe-Leu-PyrS2-3Thi-BztA-Gln-NH2], for which the IC50 in assay [1] was 6990 nM; in assay [2], more than 20 µM.

Values taken from patent US20240116985A1, “STAPLED PEPTIDES AND METHODS THEREOF” (priority 2020, published 2024).
